# Data taken from PMC4042638 (The Journal of Experimental Medicine, 2014).
# Biological target: Aβ–fibrinogen interaction (Homo sapiens, UniProt P05067)
# Experiment: AlphaLISA
# Format: binding
# Chain of Aβ–fibrinogen interaction (P05067 672-713): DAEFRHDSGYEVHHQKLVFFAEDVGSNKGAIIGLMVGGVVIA
smiles,measurement,value
CSc1ccc(/C=C2/C(C)=C(CC(=O)O)c3cc(F)ccc32)cc1 [sulindac sulfide],Inhibition of the Aβ–fibrinogen interaction in AlphaLISA (in words),no effect
